Paper PMC10412585 (Nature Communications, 2023)
“Also recorded” adds a separate entry of the source.

How the values were obtained:
[1] = system: HLA-E; test: HLA-E surface stabilization assay with RMA-S/HLA-E cells; format: cell-based, human; details: peptide 3-300 µM (Fig. 3: 30 µM) in OptiMEM, 16 h, 37 °C, anti-HLA-E 3D12, flow cytometry, n = 4 replicate experiments
Procedure: To probe top-predicted proteome-derived peptides (Tables 2 and 3) for HLA-E binding, we assessed their ability to stabilize surface-expressed HLA-E on RMA-S/HLA-E cells, a TAP-deficient mouse cell line engineered to express HLA-E and human β2M (Fig. 3 and Supplemental Fig. 8)[47].
Fig. 3 Peptide stabilization of HLA-E surface expression. Assessment of peptide-HLA-E binding via HLA-E surface stabilization assay with RMA-S/HLA-E cells incubated with 30 μM peptide. HLA-E expression is detected with an anti-HLA-E antibody. Measurements from n = 4 replicate experiments are shown, with solid black lines indicating mean values. […] Source data are provided as a Source Data file.
RMA-S/HLA-E cells were incubated with serial dilutions of peptides (3–300 µM, Genscript) in OptiMEM (ThermoFisher) for 16 h at 37 °C. Cells were washed with PBS, stained for HLA-E (Clone 3D12, Biolegend, 1:200 dilution) for 15 min at room temperature and analyzed by flow cytometry (analysis in FlowJo version 10). Peptide UBAC2_275-279 was ordered as a 5mer peptide (WNRLF) given the similarity with other WN peptides and hypothesis of a truncated peptide binding in the HLA-E groove. […] Measurements from replicate experiments are plotted in Fig. 3 and Supplemental Fig. 8.

[2] = system: NKG2A+/NKG2C- NK cells; test: NK cell activation assay with peptide-pulsed K562/HLA-E cells, NKG2A+/NKG2C- NK cells; format: cell-based, human; details: K562/HLA-E target cells, 300 µM peptide ([…] µM BFAR263-271), E:T 2:1, 6 h; degranulation (CD107a), IFN-γ, TNF, CCL3; flow cytometry
Procedure: (§1) We hypothesized that our predicted proteome-derived peptides could affect NK cell activation through interactions with CD94/NKG2A and CD94/NKG2C. To investigate, we performed cell-based activation assays on primary NK cells (Fig. 4A). NK cells were co-incubated with peptide-pulsed HLA-E-expressing K562 cells, as described previously. The parental K562 human myelogenous leukemia cell line is a typical target to measure NK cell cytotoxicity and activation, allowing for assessment of both NKG2A-mediated inhibition and NKG2C-mediated activation. […] NKG2A^-/NKG2C^- NK cells served as internal control as these should be unaffected by peptide-HLA-E complexes (Supplemental Fig. 12).
(§2) Fig. 4 NK cell stimulation assays. Assessment of effects of peptides on NK cell activity through incubation of NK cells, peptides, and (A) K562/HLA-E or (B) RMA-S/HLA-E target cells. […] Replicates for individual peptides are from different donors, with solid black lines indicating mean values. […] Representative gating for NKG2A^+/NKG2C^- and NKG2A^-/NKG2C^+ NK cells is shown in Supplemental Fig. 14. Source data are provided as a Source Data file.
(§3) All analyses of human data were carried out in compliance with the relevant ethical regulations. Healthy blood donors gave informed consent at DRK Blutspendedienst Nord-Ost, Dresden, Germany, and buffy coats were obtained as approved by Charité ethics committee (EA4/059/17). PBMCs were isolated from human CMV-seropositive buffy coats by density centrifugation over Ficoll Paque Plus (GE Healthcare) and screened for the presence of NKG2C^+ NK cell expansions by flow cytometry to have sufficient frequencies of single-positive cells for parallel assessment of activation and inhibition via HLA-E[47]. Total NK cells from donors with NKG2C^+ expansions (>10% NKG2A^-/NKG2C^+ NK cells) were enriched with CD56 microbeads (Miltenyi Biotec) and cryopreserved in FBS with 10% v/v DMSO. After thawing, NK cells were washed with complete medium, stained with antibodies and Fixable Viability Dye eFluor 780 (Thermo Fisher) for 15 min at 4 °C in PBS, sorted as viable CD56^+ CD3^− cells, and rested in complete media overnight. […] Brefeldin A and Monensin (BD Biosciences) were added after a 1 h culture period. After an additional 5 h, the stimulation was stopped by centrifugation at 4 °C. Cells underwent surface staining, followed by fixation and intracellular staining using Inside Stain Kit (Miltenyi Biotec). Samples were analyzed by flow cytometry on an LSR Fortessa (BD Biosciences). Inhibition of NKG2A^+ NK cells and activation of NKG2C^+ NK cells was assessed by gating on the respective single-positive populations (Supplemental Fig. 14). Antibodies are listed in Supplemental Table 1: anti-human CD56 PE/Dazzle 594 (1:200 dilution), CD3 APC-eFluor 780 (1:50 dilution), anti-human CD159a (NKG2A) Biotin REAfinity (1:50 dilution), anti-human CD159c (NKG2C) PE REAfinity (1:100 dilution), anti-human CD107a (LAMP-1) Alexa Fluor 488 (1:400 dilution), anti-human IFN-γ PE-Vio 770 REAfinity (1:50 dilution), anti-human TNF-α Brilliant Violet 605 (1:50 dilution), anti-human CCL3 (MIP-1α) REAfinity (1:25 dilution).

[3] = system: NKG2A-/NKG2C+ NK cells; test: NK cell activation assay with peptide-pulsed K562/HLA-E cells, NKG2A-/NKG2C+ NK cells; format: cell-based, human; details: K562/HLA-E target cells, 300 µM peptide ([…] µM BFAR263-271), E:T 2:1, 6 h; degranulation (CD107a), IFN-γ, TNF, CCL3; flow cytometry
Procedure: as §1, §2, §3

[4] = system: NKG2C+ NK cells; test: NK cell activation assay with peptide-pulsed RMA-S/HLA-E cells; format: cell-based, human
Procedure: as §2
In contrast to K562 cell lines which are targets for human NK cells, RMA-S cells (a TAP-deficient mouse cell line)[48] are inert to human NK cells and thus will not activate NK cells absent engagement of an activating receptor on the NK cells. […] We performed additional NK cell activation assays with RMA-S/HLA-E cells (Fig. 4B).
as §3

[5] = system: HLA-E; test: Prometheus differential scanning fluorimetry of HLA-E with peptide; format: binding, human; details: refolded HLA-E*01:03/β2M 9 μg, 50x peptide to MHC ratio, high sensitivity capillary, 1 °C per minute 20-95 °C, first inflection point; DMSO control 33.8
Procedure: Differential scanning fluorimetry (DSF) experiments were performed with a Prometheus NanoTemper NT.48 (Munich, Germany) to measure protein stability, using intrinsic tryptophan fluorescence.
For these experiments, refolded empty HLA-E was generated. Human β2M plus a poly-histidine tag and HLA-E*01:03 extracellular α1, α2, and α3 domains plus an AviTag biotinylation tag were separately codon optimized for E. coli and cloned into the bacterial expression vector pET28a. Inclusion bodies for HLA-E and β2M were made in BL21 E. coli. Inclusion bodies were purified, homogenized, and dissolved, including denaturation in 8 M urea solution. Before refolding, each IB was mixed with an equal volume of Gdn-Cl solution (6 M Guanidine HCl, 500 mM Tris, 2 mM EDTA, 100 mM NaCl) and incubated overnight at 37 °C. β2M was injected dropwise with a 27-gauge needle into refolding buffer (100 mM pH 8.3 Tris, 400 mM L-arginine hydrochloride, 2 mM EDTA, 0.5 mM oxidized glutathione, 5 mM reduced glutathione, 0.2 mM PMSF) and incubated, stirring gently, at 4 °C for 1 h, after which an equal mass of HLA-E heavy chain was similarly injected. This solution incubated at 4 °C overnight, followed by two days of dialysis in 10 mM Tris + 50 mM NaCl. Protein was concentrated in 10 kDa molecular weight cutoff centrifugal concentrators and purified by size exclusion chromatography on an AKTAPURE FPLC (GE Healthcare, Chicago IL), using an S200 column followed by a S75 column.
Individual DSF reactions were set up with 9 μg of MHC and 100×, 50×, or 10× peptide to MHC ratio by molarity (peptides from GenScript). The final reaction volume was 20 μL and reaction mixtures were incubated at room temperature for 20–30 min.
Prometheus excitation power was set such that raw fluorescence counts were between 8000–15000 for each sample. Samples were heated at 1 °C per minute, from 20–95 °C. DSF measurements were taken in duplicate with high-sensitivity and standard capillaries. Melting temperatures were similar for a given peptide across conditions, and representative data from 50x ratio in high sensitivity capillary are presented. A secondary inflection point around 60 °C in most melts is consistent with melting of β2M[76]. […]
Supplemental Figure 9. Differential scanning fluorimetry data generated via Prometheus NanoTemper for predicted peptides with HLA-E. a) Raw 350/330 nm ratios and first derivative for samples. The second inflection point is consistent with β2M unfolding. b) Summary of Tm values for the first inflection point called by Prometheus software for these samples. […]

[6] = biological target: T1, CD94/NKG2A (Homo sapiens, UniProt P26715+Q13241); test: Steady-state SPR of peptide-HLA-E single chain trimers with CD94/NKG2A; format: binding; details: SPR with CD94/NKG2A and CD94/NKG2C, Fig. 5B; taken as lower stability of the peptide-HLA-E complex
T1 construct: The C-terminus of human NKG2A or NKG2C ectodomain was connected via a GGSGGS linker to human CD94 ectodomain; AviTag biotinylation tag (C); poly-histidine tag (C); made in house; host or cells: baculovirus, High Five (Hi5) insect cells
T1 sequence (Q13241 whole entry, looked up, the tested form may be a part): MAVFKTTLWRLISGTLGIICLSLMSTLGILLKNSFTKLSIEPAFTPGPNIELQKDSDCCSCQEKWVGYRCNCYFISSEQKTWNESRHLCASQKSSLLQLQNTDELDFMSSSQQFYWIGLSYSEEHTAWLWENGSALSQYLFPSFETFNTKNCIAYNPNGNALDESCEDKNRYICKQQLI
T1 sequence (P26715 whole entry, looked up, the tested form may be a part): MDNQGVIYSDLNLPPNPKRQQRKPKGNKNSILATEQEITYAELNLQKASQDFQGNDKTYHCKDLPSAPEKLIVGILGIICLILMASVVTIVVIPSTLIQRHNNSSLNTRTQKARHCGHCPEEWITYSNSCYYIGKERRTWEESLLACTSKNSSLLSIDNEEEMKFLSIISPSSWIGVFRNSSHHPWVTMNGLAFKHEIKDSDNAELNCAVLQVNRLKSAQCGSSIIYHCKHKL
Procedure: Specifically, we measured CD94/NKG2A and CD94/NKG2C affinity for HLA-E complexed with three sets of peptides. […] Third, we included […] peptide as a positive control.
Steady-state surface plasmon resonance experiments were performed with a Biacore T200 instrument. CD94/NKG2x in HBS-EP+ buffer was injected as analyte in a concentration range of 0.1 μM to 102.4 μM and flow rate of 10 μL/min at 25 °C. Data was fit with Prism 9.4 (GraphPad Software Inc; San Diego CA) to a “one site, specific binding” model. Sensorgrams are included in Supplemental Fig. 13.
For investigating WN peptides, biotinylated pMHC was immobilized at approximately 400 Response Units (RU) on a Series S SA sensor chip (Cytiva). […] CD94/NKG2A was injected followed by CD94/NKG2C.
For investigating human-derived peptides, Series S CM5 chips (Cytiva) were coupled to neutravidin and utilized. Biotinylated pMHC was immobilized at approximately 400 RU. On one chip, […] CD94/NKG2A was injected followed by CD94/NKG2C. On a second chip, PISD55-63 HLA-E SCT, AKAP6_388-396 HLA-E SCT, GTF3C5_293-301 HLA-E SCT, and reference HLA-DR401 were immobilized. CD94/NKG2C was injected followed by CD94/NKG2A. Rmax, fit values were calculated by Biacore software. Rmax, theoretical values were calculated using the analyte/ligand mass ratio (0.66) multiplied by the amount of ligand coupled to the chip.

## QMPSRSLLF [CREB3L1_419-427]
[1]
  stabilization of HLA-E surface expression: strong binding that is weaker than VMAPRTLFL; also recorded: strong stabilization
[2]
  inhibitory effects on NKG2A+ cells: more moderate inhibitory effects
[3]
  activating effects on NKG2C+ cells: strong activating effects
[4]
  NKG2C-mediated NK cell activation: activation similar to the weaker positive control ([…]) or between the two positive controls
[5]
  Tm: 46.2 °C

## VLPHRTQFL [UL120_72-80, Merlin, CMV peptide from Membrane protein UL120, strain Merlin]
[1]
  stabilization of HLA-E surface expression: strong binding that is weaker than VMAPRTLFL; also recorded: strong HLA-E binding
[2]
  inhibitory effects on NKG2A+ cells: strong inhibitory effects
[3]
  activating effects on NKG2C+ cells: strong activating effects
[4]
  NKG2C-mediated NK cell activation: activation similar to the weaker positive control ([…]) or between the two positive controls
[5]
  Tm: 45.7 °C

## TGPWRSLWI [GTF3C5_293-301, human peptide from General transcription factor 3C polypeptide 5]
[1]
  stabilization of HLA-E surface expression: weak but detectable stabilization
[2]
  inhibitory effects on NKG2A+ cells: minimal inhibitory effects
[3]
  activating effects on NKG2C+ cells: clear activating effects
[4]
  NKG2C-mediated NK cell activation: detectable activation, though below both positive control examples
[4]; NKG2C+ NK cells with RMA-S/HLA-E cells, Fig. 4B, stated in author rebuttal
  average percent CD107a+: 11.1%
[6]
  maximal response units (Rmax) compared to theoretical maximum: lower maximal values compared to the theoretical maximum
